From patent US10363239B2, “Method for inhibiting growth of cancer cells” (Pain Therapeutics, Inc., priority 2013, dated 2019) come the findings set out here.

What all share (type): cell-based, human
Common to all, as to conditions: 0.1-5 nM; 4 days

Assay [1] deals with pS2448mTOR, pS473Akt, pY/pT-ERK2 in HPEC. As to the kind of experiment: Activated (phosphorylated) mTOR, Akt and ERK2 levels (immunoprecipitation, Western blotting). As for the experimental part:
(§1) Cells were treated with vehicle and 0.1-5 nM C0105 for 4 days. Cells were washed, solubilized and the resultant cell lysate was immunoprecipitated with anti-mTOR, -Akt or -ERK2. The levels of pS^2448mTOR, pS^473Akt, pY/pTERK2 in the respective anti-mTOR, -Akt, and -ERK2 immunoprecipitates were determined by Western blotting (not shown). The density of protein bands was measured by densitometric scanning. […] FIGS. 13C and 13G and FIGS. 13D and 13H show similarly obtained data for immunoprecipitates from HMEC and HPEC cells, respectively. Cell treatments and data handling were as discussed in FIG. 12.
(§2) To study the effect of Compound C0105 on pS^2152FLNA levels, FLNA linkages to key regulators including protein phosphatases as well as activated Akt (pS^473-, pT^308-Akt), mTOR ([…]) and ERK (pY/pT-ERK) levels, the cancer and normal cells were cultured to approximately 90% confluency and treated with vehicle or varying concentrations of Compound C0105. The cells were washed with warm phosphate-buffered saline (PBS), pH 7.2, dissociated, homogenized by sonication and solubilized using 0.5% NP-40 (nonoxynol 40), 0.2% sodium cholate and 0.5% digitonin for 1 hour at 4° C.
(§3) The cell lysates were diluted 5-fold with immunoprecipitation buffer and immunoprecipitated with anti-FLNA, -Akt, -mTOR and -ERK2 as described previously [Talbot et al., J Clin Inv 122(4):1-23 (2012); Wang et al., J Neurosci 32(29):9773-9784 (2012)]. The levels of FLNA linkages, activated phosphorylated Akt (pS^473 and pT^308), phosphorylated mTOR (pS^2448) and phosphorylated ERK2 (pY/pT) were determined in anti-FLNA, -Akt, -mTOR and -ERK2 immunoprecipitates by Western blotting with appropriate antibodies directed against PTEN, PP2A, K-RAS, ras-GAP (FLNA linkages), pS^473Akt, pT^308Akt, pS^2448mTOR and pY/pT ERK2 (activation of Akt, mTOR and ERK2).
In general terms: A western blot detects proteins with antibodies after separation by electrophoresis.

The test system of assay [2] is pS2448mTOR, pS473Akt, pY/pT-ERK2 in HTB-22 cells. The description is as above. As for the experimental part: as §1, §2, §3
Assay [3] relates to pS2448mTOR, pS473Akt, pY/pT-ERK2 in MiaPaCa2 cells. The description is as above. As to the method:
as §1, §2, §3

Assay [4] deals with pS2448mTOR, pS473Akt, pY/pT-ERK2 in HMEC. The assay is described as above. As for the experimental part:
as §1, §2, §3

The test system of assay [5] is pS2152FLNA, FLNA-associated PTEN and PP2A in glioblastoma cells. Kind of assay: pS2152FLNA and FLNA-associated PTEN and PP2A in anti-FLNA immunoprecipitate (Western blotting). As to the method: The effect of Compound C0105 on the levels of pS^2152FLNA and FLNA-associated phosphatases, PTEN and PP2A subclasses was determined in glioblastoma cells. Cells were treated with vehicle and 0.1-5 nM Compound C0105 for 4 days. Cells were washed and solubilized, and the resultant cell lysate was immunoprecipitated with anti-FLNA. The levels of pS^2152FLNA and FLNA-associated phosphatases, PTEN and PP2A subclasses in the anti-FLNA immunoprecipitate were determined by Western blotting. The density of protein bands was quantified by densitometric scan. […] N=4. **p<0.05, *p<0.01 compared to vehicle (open bars). […]
as §3

Assay [6] deals with pS2448mTOR, pS473Akt, pY/pT-ERK2 in glioblastoma cells. As to the kind of experiment: Activated (phosphorylated) mTOR, Akt and ERK2 levels (immunoprecipitation, Western blotting). As for the experimental part: FIG. 10A through FIG. 10C illustrate the effect of contact with Compound C0105 on the levels of activated (phosphorylated) mTOR (pS^2448mTOR), Akt (pS^473Akt) and ERK2 (pY/pT-ERK2) in glioblastoma cells. Cells were treated with vehicle and 0.1-5 nM C0105 for 4 days. Cells were washed, solubilized and the resultant cell lysate was immunoprecipitated with anti-mTOR, -Akt or -ERK2. The levels of pS^2448mTOR, pS^473Akt, pY/pTERK2 in the respective anti-mTOR, -Akt, and -ERK2 immunoprecipitates were determined by Western blotting. The density of protein bands was measured by densitometric scanning. […] N=4. *p<0.01 compared to vehicle (open bars). […]
as §3

For the compound `CN1CCC2(CC1)NCC(=O)N2Cc1ccccc1` [Compound C0105], the “mTOR, Akt and ERK activation (phosphorylated mTOR, Akt and ERK)” value was “has little effect on mTOR, Akt and ERK activation” in assay [1]; “has little effect on mTOR, Akt and ERK activation” in assay [2]; “has little effect on mTOR, Akt and ERK activation” in assay [3]; “has little effect on mTOR, Akt and ERK activation” in assay [4]; “robustly reduces mTOR, Akt and ERK activation” in assay [6]. In assay [5], the “FLNA-associated PTEN and PP2A levels” value is “increases FLNA-associated PTEN and PP2A levels”. Moreover, the pS2152FLNA level entry in assay [5] was “reduces pS^2152FLNA”.
